Several values for one entry are separate records, joined by “and”; a condition that tells them apart may be missing. Equal values may be shown once.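 Grown in 96-well plates, cells were treated for 48 hours with each compound at five concentrations. Insufficient inhibition: endpoint recorded as highest concentration tested. Here, GI50 denotes the concentration required for 50% inhibition of growth. The concentration for full growth arrest is given as TGI.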
Key:
Assay in all cases: NCI-60 cell line screen, 48 h
NCI-H226 lung = tested on: NCI-H226 lung
UACC-62 melanoma = tested on: UACC-62 melanoma
HCT-15 colon = tested on: HCT-15 colon
SNB-19 CNS = tested on: SNB-19 CNS
DU-145 prostate = tested on: DU-145 prostate
OVCAR-5 ovarian = tested on: OVCAR-5 ovarian
MALME-3M melanoma = tested on: MALME-3M melanoma
T-47D breast = tested on: T-47D breast
HL-60(TB) leukemia = tested on: HL-60(TB) leukemia
786-0 renal = tested on: 786-0 renal

Row | Compound | GI50 (NCI-H226 lung) | TGI (NCI-H226 lung) | GI50 (UACC-62 melanoma) [µM] | TGI (UACC-62 melanoma) | GI50 (HCT-15 colon) | TGI (HCT-15 colon) | GI50 (SNB-19 CNS) | TGI (SNB-19 CNS) | GI50 (DU-145 prostate) | TGI (DU-145 prostate) [µM] | GI50 (OVCAR-5 ovarian) | TGI (OVCAR-5 ovarian) [µM] | GI50 (MALME-3M melanoma) | TGI (MALME-3M melanoma) | GI50 (T-47D breast) | TGI (T-47D breast) [µM] | GI50 (HL-60(TB) leukemia) | TGI (HL-60(TB) leukemia) [µM] | GI50 (786-0 renal) [µM] | TGI (786-0 renal)
1 | O=C(CSc1nc2ccc([N+](=O)[O-])cc2[nH]1)Nc1cccc(Cl)c1 | 2.38 µM | 9.93 µM | 1.59 | 10.3 µM | 3.06 µM | 15 µM | 2.92 µM | 15.9 µM | 3.68 µM | 18.4 | 2.7 µM | 13.4 | 1.87 µM | 8.17 µM | 1.55 µM | 18.9 | 3 µM | 12.2 | 3.02 | 14.1 µM
2 | COc1ccccc1CNCCCN1C(=O)c2ccc3c4c(ccc(c24)C1=O)C(=O)N(CCCNCCCCNCCCCN)C3=O | 1.83 µM | 6.65 µM | 1.53 | 3.66 µM | 2.92 µM | 22.8 µM | 2.72 µM | 10.1 µM | 1.62 µM | 3.95 | 2.23 µM | 7 | 0.971 µM | 2.48 µM | 0.782 µM | 3.14 | 1.28 µM | 5.71 | 2.25 | 14.4 µM
3 | C=C1C(=O)O[C@H]2[C@H]1CC/C(COC(=O)/C=C\C(=O)NCc1ccc(Cn3c(=O)sn(-c4ccc(OC)cc4)c3=O)cc1)=C\CC[C@@]1(C)O[C@@H]21 | 1.28 µM | 5.51 µM | 0.7 | 1.41 µM | 0.443 µM | 1.56 µM | 0.879 µM | 1.78 µM | 0.694 µM | 1.36 | 0.825 µM | 1.71 | 0.806 µM | 1.56 µM | 0.839 µM | 2.02 | 0.876 µM | 3.74 | 0.665 | 1.37 µM
4 | CN(C)c1ccc(/C=C(\C#N)c2cc3ccccc3n2C)cc1 | 1.46 µM | > 100 µM | 0.103 | > 100 µM | 0.0687 µM | > 100 µM | 0.357 µM | > 100 µM | 0.505 µM | > 100 | 0.487 µM | > 100 | 0.133 µM | > 100 µM | 0.204 µM | > 100 | 0.0931 µM | – | 0.418 | > 100 µM
5 | CC(C)c1ccc2c(N=Nc3ccc(S(N)(=O)=O)cc3)c(O)[nH]c2c1 | 6.62 µM | > 20.6 µM | > 25 | > 25 µM | > 22.6 µM | > 25 µM | > 14.5 µM | > 25 µM | 12.5 µM | > 25 | > 25 µM | > 25 | 12.4 µM | > 25 µM | > 15.3 µM | > 25 | > 25 µM | > 25 | 12.6 | > 25 µM
6 | COc1ccc(Nc2c3c4c(cccc4[nH]c2=O)C(=O)c2ccccc2-3)cc1 | 1.2 µM | > 100 µM | 0.031 | > 100 µM | 0.0271 µM | > 100 µM | 0.684 µM | > 100 µM | < 0.0181 µM | 0.0467 | 0.0479 µM | > 90.1 | 0.0663 µM | 48.3 µM | 38.4 µM | > 100 | 0.0188 µM | 0.0393 | 0.0334 | 19.6 µM
7 | CCOc1cc(C=O)c2c(ccc3ccc(OC)c(OC)c32)c1OC | – | > 100 µM | – | > 100 µM | – | > 100 µM | – | > 100 µM | – | > 100 | – | > 100 | – | > 100 µM | – | > 100 | – | > 100 | – | > 100 µM
8 | O=C(CCCCCCC(=O)N/N=C/c1ccc(N(c2ccccc2)c2ccccc2)cc1)NO | – | – | 0.445 | 1.98 µM | 2.69 µM | 12 µM | 3.35 µM | 15.9 µM | 2.43 µM | 8.13 | 0.417 µM | 2.94 | 3.25 µM | 15 µM | 0.309 µM | 2.41 | 2.64 µM | 7.57 | 1.58 | 3.7 µM
9 | CCCCCCCCCCCC1=NC(C)(C)CN1CCO | 15.4 µM | 36.2 µM | 1.97 | 4.41 µM | 1.98 µM | 4.42 µM | 15.1 µM | 30.9 µM | 10.2 µM | 21.9 | 15.9 µM | 30.9 | 10.2 µM | 29 µM | 4.04 µM | 16.9 | 3.3 µM | 13.7 | 6.09 | 19 µM
10 | CCOCCc1c(O)nc(SC)[nH]c1=O | > 100 µM | > 100 µM | > 100 | > 100 µM | > 100 µM | > 100 µM | > 100 µM | > 100 µM | > 100 µM | > 100 | > 100 µM | > 100 | > 100 µM | > 100 µM | > 100 µM | > 100 | > 100 µM | > 100 | > 100 | > 100 µM
11 | O=C1Nc2cc(Cl)ccc2Oc2cc(Oc3ccccc3)ccc21 | 6.41 µM | 55.8 µM | 4.15 | 91.3 µM | 3.84 µM | > 100 µM | 10.5 µM | 49.2 µM | 6.52 µM | 26.6 | 8.69 µM | > 100 | 10.9 µM | 47.4 µM | 4.79 µM | 36.8 | 3.6 µM | > 100 | 8.96 | 42.2 µM
12 | O=C(Nc1ncc(Cc2ccccc2)s1)c1ccc2c(c1)OCCO2 | 0.278 µM | 7.01 µM | 0.0465 | 12.3 µM | 0.0385 µM | > 100 µM | 0.0549 µM | > 38 µM | 0.0395 µM | > 100 | 0.096 µM | > 100 | 0.042 µM | > 100 µM | 0.0523 µM | > 100 | 0.0416 µM | > 100 | 0.0562 | > 100 µM
13 | COc1ccc2c(CC(=O)O)cc(=O)oc2c1 | – | > 100 µM | – | > 100 µM | – | > 100 µM | – | > 100 µM | – | > 100 | – | > 100 | – | > 100 µM | – | > 100 | – | > 100 | – | > 100 µM
14 | CCOC(=O)c1c[nH]c2c(OCc3ccccc3)c3ccccc3c(O)c2c1=O | 4.28 µM | 20.8 µM | 3.1 | 15.8 µM | 11.1 µM | > 100 µM | 16.7 µM | 97.1 µM | 12.1 µM | > 74.2 | 54.7 µM | > 100 | 5.63 µM | 26.6 µM | 18.5 µM | 69.6 | 40.7 µM | > 100 | 18.6 | 57.4 µM
15 | C/C(=N\Nc1ccc2ccccc2n1)c1ccccc1O | – | > 100 µM | – | > 100 µM | – | > 100 µM | – | > 100 µM | – | > 100 | – | > 100 | – | > 100 µM | – | > 100 | – | > 100 | – | > 100 µM
16 | CS(=O)(=O)N1CCN(Cc2cc3nc(-c4cccc5[nH]ncc45)nc(N4CCOCC4)c3s2)CC1 | 0.408 µM and 0.473 µM | > 21.6 µM | – | 0.244 µM | 0.721 µM and 0.453 µM | > 100 µM | 2.91 µM and 0.896 µM | > 100 µM | 0.61 µM and 0.427 µM | > 100 | 0.357 µM and 0.234 µM | > 100 | 0.311 µM and 0.128 µM | – | 0.0668 µM and 0.035 µM | 0.505 | 0.121 µM and 0.052 µM | > 100 | 0.281 | 2.46 µM
17 | C=C1C(=O)O[C@H]2[C@H]1CC/C(C=Nc1ccc(C(F)(F)F)cc1N)=C\CC[C@@]1(C)O[C@@H]21 | 10 µM | 32.2 µM | 2.91 | 15.6 µM | 3.48 µM | 13.6 µM | 11.5 µM | 26.2 µM | 3.21 µM | 13.1 | 13.2 µM | 31.7 | 11.1 µM | 26.2 µM | 3.31 µM | 22.1 | 3.53 µM | 14.3 | 5.86 | 18.5 µM
18 | NC(=O)c1nnn(Cc2cc(Cl)c(C(=O)c3ccc(Cl)cc3)c(Cl)c2)c1N | > 9.09 µM | > 9.09 µM and 55.8 µM | > 9.09 | > 9.09 µM and 36.4 µM | > 9.09 µM | > 9.09 µM and 39.7 µM | > 9.09 µM | > 9.09 µM and 30.5 µM | – | > 53.5 | > 9.09 µM | > 53.4 | > 9.09 µM | > 9.09 µM and 44.1 µM | – | > 51.6 | > 9.09 µM | > 100 | > 9.09 | > 9.09 µM and 43 µM
19 | Fc1ccc(-c2ncn(C3CCNCC3)c2-c2ccnc(Oc3ccccc3)n2)cc1 | > 25 µM | > 25 µM | > 25 | > 25 µM | > 22.8 µM | > 25 µM | > 25 µM | > 25 µM | > 25 µM | > 25 | 22.3 µM | > 25 | 18.4 µM | > 25 µM | 17.3 µM | > 25 | > 16.6 µM | > 25 | > 22.5 | > 25 µM
20 | COc1ccc(-c2cn(-c3ccc(Cl)cc3)c(=S)[nH]2)cc1OC | 3.62 µM | > 100 µM | – | – | 5.22 µM | > 100 µM | – | – | 14 µM | > 100 | 4.58 µM | > 100 | 68.4 µM | > 100 µM | 6.09 µM | > 100 | 3.34 µM | 9.32 | 6.44 | 91.7 µM
